Data published in the NIST ThermoML archive (doi:10.1016/j.fluid.2004.10.028).

Test: wn = mass fraction of the nth substance listed
Details: Liquid, Capillary tube (Ostwald / Ubbelohde) method

O=S(=O)([O-])[O-].[Na+].[Na+] [sodium sulfate] + O
viscosity [mPa·s]
Details	100 kPa	10000 kPa	20000 kPa	30000 kPa	40000 kPa
298.15 K, w1 = 0.015	0.933	0.9335	0.9365	0.9399	0.942
298.15 K, w1 = 0.03	0.9746	0.9759	0.9769	0.9799	0.9812
298.15 K, w1 = 0.05	1.035	1.04	1.041	1.042	1.044
298.15 K, w1 = 0.07	1.119	1.119	1.119	1.121	1.122
298.15 K, w1 = 0.1	1.252	1.255	1.256	1.257	1.258
298.15 K, w1 = 0.15	1.545	1.548	1.55	1.551	1.554
298.15 K, w1 = 0.2	1.963	1.965	1.966	1.967	1.968
303.15 K, w1 = 0.23	1.993	1.993	1.996	1.999	2.002
303.15 K, w1 = 0.26	2.243	2.245	2.249	2.253	2.259
323.05 K, w1 = 0.1	0.7656	0.767	0.771	0.7745	0.778
323.15 K, w1 = 0.03	0.5972	0.5991	0.6012	0.6054	0.609
323.15 K, w1 = 0.2	1.168	1.17	1.176	1.181	1.185
323.15 K, w1 = 0.23	1.333	1.336	1.34	1.346	1.353
323.15 K, w1 = 0.26	1.504	1.505	1.509	1.515	1.523
323.25 K, w1 = 0.07	0.6825	0.6846	0.6875	0.6902	0.6935
323.4 K, w1 = 0.15	0.9286	0.9316	0.9354	0.9401	0.945
323.7 K, w1 = 0.015	0.5669	0.5741	0.5795	0.5821	0.5835
323.8 K, w1 = 0.05	0.6285	0.632	0.633	0.636	0.6385
347.2 K, w1 = 0.05	0.4434	0.4465	0.4496	0.453	0.4587
347.6 K, w1 = 0.07	0.4733	0.4764	0.4795	0.4824	0.4875
347.9 K, w1 = 0.2	0.7892	0.7944	0.8004	0.8053	0.811
348.15 K, w1 = 0.015	0.395	0.3977	0.4006	0.4038	0.4087
348.35 K, w1 = 0.03	0.4107	0.4134	0.4169	0.42	0.4225
348.42 K, w1 = 0.1	0.5232	0.5267	0.5294	0.534	0.5399
348.6 K, w1 = 0.26	1.01	1.017	1.023	1.029	1.041
348.7 K, w1 = 0.15	0.6292	0.6336	0.6367	0.6418	0.6473
348.7 K, w1 = 0.23	0.8925	0.8987	0.9053	0.9128	0.92
370.4 K, w1 = 0.23	–	0.6799	0.6864	0.6905	0.6997
371.95 K, w1 = 0.05	–	0.3317	0.335	0.3389	0.343
372.4 K, w1 = 0.1	–	0.3948	0.3979	0.3998	0.4062
372.8 K, w1 = 0.15	–	0.4705	0.4743	0.4795	0.484
372.9 K, w1 = 0.03	–	0.3096	0.3124	0.3164	0.3186
373.8 K, w1 = 0.015	–	0.2947	0.2994	0.3034	0.3065
373.9 K, w1 = 0.07	–	0.3482	0.3508	0.3546	0.359
374.5 K, w1 = 0.2	–	0.5699	0.5743	0.5799	0.5875
375.2 K, w1 = 0.26	–	0.7321	0.7395	0.7436	0.7535
395.4 K, w1 = 0.15	–	0.3731	0.3767	0.381	0.386
395.62 K, w1 = 0.05	–	0.2626	0.2668	0.2695	0.2716
397.1 K, w1 = 0.07	–	0.2772	0.2799	0.2834	0.287
397.21 K, w1 = 0.2	–	0.4505	0.454	0.4598	0.4654
398.4 K, w1 = 0.03	–	0.2422	0.2468	0.2494	0.251
398.72 K, w1 = 0.1	–	0.3052	0.3094	0.3132	0.3159
398.8 K, w1 = 0.23	–	0.5081	0.5124	0.5185	0.5253
399.01 K, w1 = 0.015	–	0.2321	0.2367	0.2398	0.2412
399.4 K, w1 = 0.26	–	0.5695	0.5739	0.58	0.5895
420.3 K, w1 = 0.2	–	0.3686	0.3729	0.3775	0.3826
421.3 K, w1 = 0.15	–	0.2998	0.3027	0.3087	0.3114
421.4 K, w1 = 0.1	–	0.2535	0.2565	0.2596	0.2635
